# Assay results: patent US8357350B2, “Annulus fibrosus detection in intervertebral discs using molecular imaging agents” (General Electric Company, priority 2009, dated 2013)
# What was measured:
# [1] = Absorbance and fluorescence spectra of FM fluorophores in solvents; type: physicochemical; details: for Em nm (MeOH): emission maximum in MeOH; for Em nm (PBS): emission maximum in PBS; for Ex nm (MeOH): excitation maximum in MeOH; for Ex nm (PBS): excitation maximum in PBS
# Experimental: (§1) Absorbance and fluorescence spectra of the FM fluorophores were measured in PBS and absolute methanol (MeOH) using fiber-optic HR2000 (200-1100 nm) and USB2000FL (350-1000 nm) spectrometers (Ocean Optics, Dunedin, Fla.), respectively. Fluorescence excitation was provided by a 2 mW, 532 nm laser diode. The fluorescence and absorbance spectra of FORMULA II and FORMULA IA were collected in dimethyl sulfoxide (DMSO) and fetal bovine serum (FBS), as well as MeOH and PBS. The quantum yield of FORMULA II and FORMULA IA in DMSO, MeOH, FBS and PBS was measured by comparing the integrated fluorescence emission of the fluorophores in each solvent to the emission of Alexa Fluor 555 (Invitrogen) in PBS (quantum yield=10%) as a reference standard under conditions of matched absorbance at the excitation wavelength. The LogD of each FM fluorophore at pH 7.5 was calculated using Marvin 5.0.3 software (ChemAxon, Budapest, Hungary).
# dorsal root ganglia [2] = assay: FM fluorophore uptake, intraoperative fluorescence imaging; type: in vivo, mice and rats; details: 5 mg/kg mice, 0.5 mg/kg rats IP, 16 hours before imaging; signal normalized to muscle, vs vehicle control; further: key: +: Positive contrast was concluded if the nerve-to-muscle contrast ratio of FM fluorophore-injected animals was elevated relative to control animals
# Experimental: (§2) Imaging was carried out at near infrared wavelenghts using a 400- to 700-nm “white” light (0.5 mW/cm^2) and a 725- to 775-nm NIR fluorescence excitation light (5 mW/cm^2). Fluorescence images were collected using exposure times ranging from 500 to 2000 msec. All images collected for comparison between vehicle-injected control animals and FM fluorophore-injected animals had the same exposure time and normalization. Color video images were collected on a separate optical channel using custom designed software. The excitation and emission LEDs and filter used for the FM fluorophores and Pam800 in the intraoperative imaging system are described as follows. For fluorescence excitation of FM 1-43, FM 2-10, FM 1-43FX and Formula IA, sixty 5-mm 470 nm LEDs ([…], Inc., Kyoto, Japan) fitted with 470±20 nm band pass (BP) excitation filters (Chroma Technology, Rockingham, Vt.) in custom holders were used, which produced a fluence rate on the imaging surface of 0.56 mW/cm^2. For fluorescence excitation of Formula II, FM 4-64, FM 4-64FX and FM 5-95, sixty 5-mm 535 nm LEDs fitted with 525±25 nm BP excitation filters were used, which produced a fluence rate on the imaging surface of 0.34 mW/cm^2. A 610±38 nm BP filter was used to detect fluorescence emission of FM 1-43, FM 2-10, Formula II, FM 1-43FX and Formula IA. To detect fluorescence emission of FM 4-64, FM 4-64FX and FM 5-95 a 720 nm long pass (LP) filter was used. For fluorescence excitation of Pam800, 348 5-mm 760 nm LEDs fitted with 764±17 nm BP excitation filters were used, which produced a fluence rate on the imaging surface of 8.73 mW/cm^2 and fluorescence emission was detected using a 824±24 nm BP emission filter. To assess the structure-activity relationship of the FM fluorophores, each molecule was administered at 5 mg/kg to mice and 0.5 mg/kg to rats (n=4 per group) in 10% DMSO and 90% PBS IP 16 hours before imaging with the intraoperative system. The fluorescence signal from the spinal cord, intervertebral discs, dorsal root ganglia, trigeminal ganglia, optic nerve, brain and femoral nerve were normalized to muscle signal in the same image. This normalization ratio was then compared between FM fluorophore-injected animals and vehicle-injected control animals.
# intervertebral discs = assay: as above; type: in vivo, mice and rats; on Uptake: Intervertebral Disc: key: +: Positive contrast was concluded if the nerve-to-muscle contrast ratio of FM fluorophore-injected animals was elevated relative to control animals
# Experimental: as §2
# trigeminal ganglia = assay: as above; type: in vivo, mice and rats; details: 5 mg/kg mice, 0.5 mg/kg rats IP, 16 hours before imaging; signal normalized to muscle, vs vehicle control; further: key: +: Positive contrast was concluded if the nerve-to-muscle contrast ratio of FM fluorophore-injected animals was elevated relative to control animals
# Experimental: as §2
# dorsal root ganglia [3] = assay: Histology and fluorescence microscopy of dorsal root ganglia; type: in vivo; details: rat, 0.5 mg/kg, 16 h post-IP
# Experimental: Tissues from mice, rats and pig were preserved for microscopic assessment and localization of fluorescence signal. Tissues were extracted from the animal and placed in 2% paraformaldehyde in PBS for 2 to 4 hours before mounting in Tissue-Tek OCT compound (Fisher Scientific, Pittsburgh, Pa. ) and flash-freezing in liquid nitrogen. Each sample was cryo-sectioned (12 μm per slice); one slide was stained with hematoxylin and eosin (H&E) and a consecutive section was used for fluorescence microscopy. For fluorescence microscopy, serial sections were imaged on a Nikon TE 300 microscope system equipped with a mercury excitation source (Chiu Technical Corporation, Kings Park, N.Y.), Orca-ER 12-bit camera (Hamamatsu, Bridgewater, N.J.), and IPLab software (BD Biosciences, Rockville, Md.), using the following excitation and emission filters combinations. To obtain fluorescence images of FM 4-64, the mercury light source was passed through a 540±15 nm BP excitation filter, 700 nm dichroic beam splitter and 720 nm LP emission filter. To obtain fluorescence images of FM 1-43FX and Formula IA, the mercury light source was passed through a 460±25 nm BP excitation filter, 505 nm dichroic beam splitter and a 610±38 nm BP emission filter. Exposure times were adjusted between 5 and 2000 ms for fluorescence images.
# [4] = Fluorescence quantum yield versus Alexa Fluor 555 reference; type: physicochemical; details: highest in FBS among DMSO, MeOH, PBS
# Experimental: as §1
SMILES,Em nm (MeOH) [1],Em nm (PBS) [1],Ex nm (MeOH) [1],Ex nm (PBS) [1],"blue shift of emission maximum in FBS ([1]; FBS compared to DMSO, MeOH or PBS)","fluorescence quantum yield, times higher in FBS [4]",Uptake: Dorsal Root Ganglia (dorsal root ganglia [2]),"Uptake: Intervertebral Disc (intervertebral discs; 5 mg/kg mice, 0.5 mg/kg rats IP, 16 hours before imaging, signal normalized to muscle, vs vehicle control)",contrast in the intervertebral discs (intervertebral discs; IP administration to mice and rats),Uptake: Trigeminal Ganglia (trigeminal ganglia),microscopic localisation of fluorescence in dorsal root ganglion (dorsal root ganglia [3])
CCCCN(CCCC)c1ccc(/C=C/c2cc[n+](CCC[N+](CC)(CC)CC)cc2)cc1.[Br-].[Br-] [FM 1-43],624 nm,631 nm,509 nm,493 nm,–,–,+,+,positive contrast,+,–
CCN(CC)c1ccc(C=CC=CC=Cc2cc[n+](CCC[N+](C)(C)C)cc2)cc1.[Br-].[Br-] [FM 5-95],809 nm,809 nm,542 nm,490 nm,–,–,+,–,–,+,–
"CCCCN(CCCC)c1ccc(/C=C/C=C/C=C/c2cc[n+](CCC[N+](CC)(CC)CC)cc2)cc1.[Br-].[Br-] [Formula II, 4-((1 E,3E,5E)-6-(4-(dibutylamino)phenyl)hexa-1,3,5-trienyl)-1-(3-(triethylammonio)propyl)pyridinium dibromide]",813 nm,808 nm,549 nm,519 nm,over 100 nm,10 times,–,–,–,+,–

# Second part, led by results:
Em nm (MeOH) [1],Em nm (PBS) [1],Ex nm (MeOH) [1],Ex nm (PBS) [1],"blue shift of emission maximum in FBS ([1]; FBS compared to DMSO, MeOH or PBS)","fluorescence quantum yield, times higher in FBS [4]",SMILES,Uptake: Dorsal Root Ganglia (dorsal root ganglia [2]),"Uptake: Intervertebral Disc (intervertebral discs; 5 mg/kg mice, 0.5 mg/kg rats IP, 16 hours before imaging, signal normalized to muscle, vs vehicle control)",contrast in the intervertebral discs (intervertebral discs; IP administration to mice and rats),Uptake: Trigeminal Ganglia (trigeminal ganglia),microscopic localisation of fluorescence in dorsal root ganglion (dorsal root ganglia [3])
622 nm,628 nm,507 nm,490 nm,–,–,CCN(CC)c1ccc(/C=C/c2cc[n+](CCC[N+](CC)(CC)CC)cc2)cc1.[Br-].[Br-] [FM 2-10],–,–,–,+,–
811 nm,808 nm,546 nm,507 nm,–,–,CCN(CC)c1ccc(/C=C/C=C/C=C/c2cc[n+](CCC[N+](CC)(CC)CC)cc2)cc1.[Br-].[Br-] [FM 4-64],+,–,–,+,significant fluorescence intensity was seen in the dense cellular regions
